Target: T1, Human GLUT5 (Homo sapiens, UniProt P22732)
T1 construct: expressed in transfected cells; host or cells: Xenopus oocytes injected with in vitro transcribed GLUT5 cRNA
T1 sequence (P22732 1-501): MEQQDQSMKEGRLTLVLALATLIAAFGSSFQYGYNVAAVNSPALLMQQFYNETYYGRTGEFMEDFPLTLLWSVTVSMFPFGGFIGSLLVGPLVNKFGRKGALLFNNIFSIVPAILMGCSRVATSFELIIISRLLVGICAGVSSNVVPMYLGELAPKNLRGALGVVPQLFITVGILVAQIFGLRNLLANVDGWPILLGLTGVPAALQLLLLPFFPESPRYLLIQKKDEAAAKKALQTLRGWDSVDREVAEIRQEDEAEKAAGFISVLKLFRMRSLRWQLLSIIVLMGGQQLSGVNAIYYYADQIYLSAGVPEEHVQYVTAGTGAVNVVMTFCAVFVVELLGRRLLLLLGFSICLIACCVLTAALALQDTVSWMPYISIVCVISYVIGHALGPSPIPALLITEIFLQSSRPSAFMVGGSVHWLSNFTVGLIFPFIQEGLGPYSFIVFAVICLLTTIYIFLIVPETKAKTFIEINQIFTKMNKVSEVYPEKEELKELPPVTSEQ
Experiment: 3H-fructose uptake in Xenopus oocytes expressing GLUT5
Assay type: cell-based
Conditions: Xenopus oocytes injected with GLUT5 cRNA, ND96 buffer, 3 minutes, scintillation counting (FIG. 2)
Protocol: To assess transport function of a specific transporter protein, it can be desirable to clone the cDNA and express the protein in cells that have low endogenous transport activity. Human GLUT5 was cloned by PCR, fully sequenced, and subcloned into plasmids that can be used for expression in mammalian cells or Xenopus oocytes. […] For expression in Xenopus oocytes, in vitro GLUT5 cRNA was prepared and injected into defoliculated oocytes.
Oocytes expressing GLUT5 or control oocytes not expressing GLUT5 were incubated in an oocyte ringers (ND96) buffer (90 mM NaCl, 10 mM HemiNa HEPES, 2 mM KCl, 1 mM MgCl, 1.8 mM CaCl2) containing 0.5% bovine serum albumin and 3H-fructose ([…]) for 3 minutes. Oocytes were washed and uptake of radiolabel quantified by scintillation counting.

## O=C(CO)[C@@H](O)[C@H](O)[C@H](O)CO [^3H-fructose, fructose]
  uptake of radiolabel into oocytes expressing GLUT5 versus noninjected controls: higher levels of ^3H-fructose uptake than noninjected controls

Reference: patent US20050282205A1, “GLUT5 transporters expressed in cancer cells” (Xenoport, Inc., priority 2004, published 2005)
